Columns and labels:
[1] = system: cryopreserved human hepatocytes in primary culture; test: Unchanged drug disappearance / intrinsic metabolic clearance in primary cultures of cryopreserved human hepatocytes; format: in vitro ADME; conditions: for In vitro intrinsic hepatic clearance, Mean ± SD: mean of four hepatocyte preparations
Description: Cryopreserved human hepatocytes were plated on 48-well collagen-coated plastic plates in a chemically defined medium adapted from Isom and Georgoff ([1984]), consisting of a 50/50 (v/v) mixture of Ham F12/Williams E medium supplemented with 10% decomplemented fetal calf serum, 10 mg/L insulin, 0.8 mg/L glucagon and antibiotics (100 IU penicillin and 100 μg/mL streptomycin). After 4–6 h at 37°C in a 5% CO2 and 100% humidified atmosphere, period during which hepatocytes attached to the collagen-matrix, the plating medium was removed and replaced by the same serum-free culture medium supplemented with HEPES (3.6 g/L), ethanolamine (4 mg/L), transferrin (10 mg/L), linoleic acid albumin (1.4 mg/L), glucose (252 mg/L), sodium pyruvate (44 mg/L), ascorbic acid (50 mg/L), arginine (104 mg/L), and L-glutamine (0.7 g/L).
Experiments were performed in 48-well plastic plates coated with rat tail Collagen type I. Plates were seeded with 0.16 × 10^5 hepatocytes per well in a final volume of 0.2 mL and incubated at 37°C under a 95% humidified air and 5% CO2 atmosphere. After 3 h during which cells were allowed to attach, the medium was renewed with 0.1 mL serum-free medium. Then, the investigated drug or metabolic probe(s) were added directly to the incubation medium in the absence or the presence of inhibitors such as either ketoconazole as a specific and potent CYP3A inhibitor (3 μmol/L final concentration), clorgyline (0.25 μmol/L final concentration) as a potent MAO-A inhibitor or ABT as a potent but nonselective CYP isoforms inhibitor (1 mmol/L final concentration) (Fabre et al. [1988]; Bourrié et al. [1996]; Klieber et al. [2008]). Regardless of the final concentration investigated, the final solvent (DMSO) concentration never exceeded 0.2% (v/v).
To determine the metabolism of the different compounds (metabolic probes, dronedarone, N-debutyl-dronedarone, propanoic acid-dronedarone, phenol-dronedarone, and C-dealkyl-dronedarone), kinetic studies were performed over 0–24 h. For each time point, 0.1 mL of acetonitrile was added to the specific well for protein precipitation, and both extracellular medium and the cell fraction were scraped together. Cell extracts were transferred to a glass tube and stored at −20°C until analysis. Before analysis, cell homogenates were sonicated for a few seconds, homogenized and centrifuged at 6000 g for 10 min. Supernatant fluids were then analyzed for the different drugs and their specific metabolites.
LC/MS-MS analysis was performed using an Acquity UPLC System I-Class equipped with a Waters Acquity UPLC BEH C18 column (2.1 mm i.d. × 100 mm length, 1.7 μm particle size) coupled to a Xevo TQS mass spectrometer (all from Waters, Milford, MA) used in electrospray ion positive mode.
In human hepatocytes, the intrinsic in vitro metabolic clearances (Clint) were calculated using WinNonLin PK analysis software version 5.2. All disappearance kinetics data were fitted with a model using the following equation: [drawing 2] where ke is the elimination rate constant expressed in h^−1, and V is the incubation volume expressed in mL normalized to 10^6 hepatocytes. The equation was applied to the initial (linear) part of the concentration–time curve.
The kinetics of drug disappearance were investigated using four different cryopreserved human hepatocyte preparations in primary cultures following incubation with either dronedarone or its metabolites at a concentration of 5 μmol/L. Incubations were performed either in the absence, that is control conditions, or in the presence of enzyme system inhibitors such as 3 μmol/L ketoconazole (specific and potent inhibitor of CYP3A4/5), 1 mmol/L ABT (a potent and […] inhibitor of total CYPs), or 0.25 μmol/L clorgyline (a potent MAO-A inhibitor) (Dorris [1982]). Kinetic studies were performed over 24 h.

MAO-A and MAO-B = test: Oxidation by recombinant human MAOs; format: in vitro ADME; conditions: 1 mg/mL, 5 μmol/L, 30 min, no cofactor
Source text: Recombinant human CYPs (Supersomes™; BD Gentes, Woburn, MA: CYP1A1, CYP1A2, CYP2A6, CYP2B6, CYP2C8, CYP2C9, CYP2C18, CYP2C19, CYP2D6, CYP2E1, CYP3A4 and CYP3A5), FMOs (Supersomes™: FMO1, FMO3, FMO5), MAOs (Supersomes™: MAO-A and MAO-B), and UGTs (Supersomes™: UGT1A1, UGT1A3, UGT1A4, UGT1A6, UGT1A7, UGT1A8, UGT1A9, UGT1A10, UGT2B4, UGT2B7, UGT2B15, and UGT2B17) expressed in baculovirus-infected insect cells and control microsomes from insect cells infected with wild-type baculovirus were all obtained from BD Gentest (Woburn, MA).
For oxidative pathways, the assay mixture was composed of human liver microsomes (1 mg·m·L^−1) or microsomes of baculovirus-infected cells expressing human enzymes (100 pmol·mL^−1 for CYPs and 1 mg·mL^−1 for FMOs and MAOs), nicotinamide adenine dinucleotide phosphate reduced form (NADPH) (1 mmol/L), 100 mmol/L potassium phosphate (pH 7.4), and 5 μmol/L of the investigated compound dissolved in DMSO in a final volume of 500 μL.
The final concentration of DMSO in the reaction mixture was less than 1% (v/v). Initial rate conditions with respect to time and protein concentration for both the disappearance of unchanged drug and the formation of respective metabolites were established in preliminary studies. The enzyme reaction was initiated by addition of NADPH (10 mmol/L aqueous solution) to achieve a final concentration of 1 mmol/L for oxidative CYP- and FMO-dependent reactions or by the drug for MAO-dependent reactions, incubated at 37°C and stopped after 0–30 min by addition of one volume of ice-cold acetonitrile.
In human liver microsomes and recombinant isoforms, the percentage of metabolism was determined on the basis of unchanged drug disappearance, using the following equation [drawing 1] where UDt = 30 min represents the unchanged drug peak area after a 30-min incubation period and UDt = 0, the unchanged drug peak area at t = 0.
To identify the specific isoforms that are capable of oxidizing dronedarone and its metabolites, assays were performed using c-DNA-expressed isoforms belonging to CYP- (CYP1A1, -1A2, -2A6, -2B6, -C8, -2C9, -2C18, -2C19, -2D6, -2E1, -3A4, and -3A5), FMO- (FMO-1, -3, and -5) and MAO- (MAO-A and MAO-B) families.
Figure 5 Contribution of individual CYPs, FMOs and MAOs to the oxidation of dronedarone and its metabolites. […] Unchanged drugs were quantified by LC/MS-MS relative to the synthetic references as described in Materials and Methods. Data are expressed as the percentage of oxidation.

[2] = hepatocyte preparation BD-91, 5 μmol/L
[3] = hepatocyte preparation BD-296, 5 μmol/L
[4] = hepatocyte preparation HU-1359, 5 μmol/L
[5] = hepatocyte preparation IVT-IBG, 5 μmol/L

Row | In vitro intrinsic hepatic clearance [1, 2] [mL·h^−1·10^6 cells] | In vitro intrinsic hepatic clearance [1, 3] [mL·h^−1·10^6 cells] | In vitro intrinsic hepatic clearance [1, 4] [mL·h^−1·10^6 cells] | In vitro intrinsic hepatic clearance [1, 5] [mL·h^−1·10^6 cells] | Mean maximal concentration of metabolite formed ([1]; hepatocytes incubated with 5 μmol/L dronedarone, control conditions without inhibitors) | In vitro intrinsic hepatic clearance, Mean ± SD ([1]; 5 μmol/L) [mL·h^−1·10^6 cells] | Drug metabolized within 6 h of incubation ([1]; 5 μmol/L, control conditions) | Oxidation by MAOs (MAO-A and MAO-B) | In vitro intrinsic hepatic clearance, Mean ± SD ([1]; 5 μmol/L, listed as phenol-dronedarone) [mL·h^−1·10^6 cells] | SMILES
1 | 0.18 | 0.10 | 0.10 | 0.08 | around 0.6 μmol/L | 0.13 ± 0.03 |  |  |  | CCCCNCCCOc1ccc(C(=O)c2c(CCCC)oc3ccc(NS(C)(=O)=O)cc23)cc1 [N-debutyl-dronedarone]
2 | 0.49 | 0.58 | 0.14 | 0.10 |  | 0.33 ± 0.21 | more than 80% | not involved |  | CCCCc1oc2ccc(NS(C)(=O)=O)cc2c1C(=O)c1ccc(OCCCN(CCCC)CCCC)cc1.Cl [Dronedarone, N-(2-Butyl-3-(4-(3-(dibutylamino)propoxy)benzoyl)-5-benzofuranyl)methanesulfonamide, hydrochloride]
3 | 0.003 | 0.002 | 0.004 | 0.003 |  | 0.003 ± 0.001 |  | not metabolized |  | CCCCN(CCCC)CCCOc1ccc(C(=O)O)cc1 [C-dealkyl-dronedarone]
4 | 0.44 | 0.70 | 0.57 | 0.75 |  | 0.62 ± 0.12 |  | contributed to a very small extent | 0.61 ± 0.12 | CCCCc1oc2ccc(NS(C)(=O)=O)cc2c1C(=O)c1ccc(O)cc1 [Phenol-dronedarone]

Row | SMILES | In vitro intrinsic hepatic clearance [1, 2] [mL·h^−1·10^6 cells] | In vitro intrinsic hepatic clearance [1, 3] [mL·h^−1·10^6 cells] | In vitro intrinsic hepatic clearance [1, 4] [mL·h^−1·10^6 cells] | In vitro intrinsic hepatic clearance [1, 5] [mL·h^−1·10^6 cells] | Mean maximal concentration of metabolite formed ([1]; hepatocytes incubated with 5 μmol/L dronedarone, control conditions without inhibitors) | In vitro intrinsic hepatic clearance, Mean ± SD ([1]; 5 μmol/L) [mL·h^−1·10^6 cells] | Drug metabolized within 6 h of incubation ([1]; 5 μmol/L, control conditions) | Oxidation by MAOs (MAO-A and MAO-B) | In vitro intrinsic hepatic clearance, Mean ± SD ([1]; 5 μmol/L, listed as phenol-dronedarone) [mL·h^−1·10^6 cells]
5 | CCCCc1oc2ccc(NS(C)(=O)=O)cc2c1C(=O)c1ccc(OCCC(=O)O)cc1 [Propanoic acid-dronedarone] | 0.06 | 0.17 | 0.20 | 0.14 |  | 0.14 ± 0.05 |  | Neither other CYPs, nor FMOs and MAOs metabolized propanoic acid-dronedarone to any significant extent | 

— publication PMC4186413, “Identification of metabolic pathways and enzyme systems involved in the in vitro human hepatic metabolism of dronedarone, a potent new oral antiarrhythmic drug” (Pharmacology Research & Perspectives, 2014)
